From publication PMC8875489, “Pharmaceutical and Safety Profile Evaluation of Novel Selenocompounds with Noteworthy Anticancer Activity” (Pharmaceutics, 2022)
Like-named read-outs stand apart in the source and are kept apart here.

Legend:
[1] = PAMPA membrane permeability test (capillary electrophoresis); assay type: in vitro ADME; conditions: for Papp at 5 h, 50 µM: 50 μM in PBS pH 7.4, 5 h, room temperature, read-out: In Vitro Permeability
Procedure: The passive transport and membrane absorption of 5 selected selenocompounds (EDA-58, EDA-71, EDA-119, EDA-122, and EDA-A6) were evaluated with the in vitro parallel artificial membrane permeability assay (PAMPA). This PAMPA assay could provide better predictability and membrane permeability correlations compared to the data obtained for human absorption in the Caco-2 cell line. The Precoated PAMPA Plate System Gentest™ (Corning, Bradford, MA, USA) was used to perform the permeability assay for the 5 selected Se compounds. The protocol of the permeability assay was similar to the previously described ones and is detailed in the Supplementary Materials.
Five selenocompounds (EDA-58, EDA-71, EDA-119, EDA-122, and EDA-A6) were evaluated with the PAMPA in vitro assay using the CE technique.
[formula] Scheme 1 Calculation of the in vitro permeability (cm/s). A (filter area) cm^2 = 0.3; VD (donor well volume) mL = 0.3; VA (acceptor well volume) mL = 0.2; t (incubation time) seconds = 18,000; CA(t) (compound concentration in acceptor well at time t); CD(t) (compound concentration in donor well at time t). […]
(§1) 1.3. PAMPA test: membrane permeability evaluation.
(§2) The passive transport and the membrane absorption of 5 selected selenocompounds (EDA-58, EDA-71, EDA-119, EDA-122, EDA-A6) were evaluated in the in vitro Parallel Artificial Membrane Permeability Assay (PAMPA). The protocol of the permeability assay was similar to the ones previously described.
1.3.1. Stock solutions and sample preparation for PAMPA test
Working solutions of the tested compounds at the concentration of the 50 μM in the phosphate saline buffer (PBS, pH 7.4) were prepared from the stocks in the pure dimethyl sulfoxide (DMSO) and stored at -20° C. Moreover, to draw the precise calibration curves for each tested (EDA-58, EDA-71, EDA-119, EDA-122, EDA-A6) and reference com- […]
The Precoated PAMPA Plate System Gentest™ (Corning, Bradford, MA, USA) was used to perform permeability assay for the 5 selected Se-compounds. The essential part of […]
solvents. PAMPA Plate System was brought to room temperature 30 min before use.
The 96-well filter plate precoated with lipids was used as a permeation acceptor, whereas the 96-well receiver plate acted as the permeation donor plate. Therefore, the compound solutions were added to the wells (300 μL/well) of the receiver plate and PBS was added to wells (200 μL/well) of the precoated filter plate.
Then, the filter plate was coupled with the receiver plate and both were incubated at room temperature for five hours without agitation. […] Fi-nally, the permeability coefficients (Pe, [cm/s]) of the tested compounds were estimated using the formula provided by the PAMPA Plate System manufacturer.
1.3.3. Capillary electrophoresis (CE) analytical method […]
were calculated in both the donor and acceptor compartments using the capillary electro-

[2] = test system: Salmonella Typhimurium TA100 strain; conditions: for Fold Increase over Baseline / MI (mutagenic index) / B (binomial B value): TA100; for Fold Increase over Baseline: alert ≥ 2.0; for MI (mutagenic index): mutagenic if MI ≥ 2; for B (binomial B value): threshold ≥ 0.99
Procedure: Safety profiles were evaluated using an in vitro microbiological method adapted to the microplate Ames test (384-well microtitration plate), which applies Salmonella enterica serovar Typhimurium bacterial strains (the gold standard in mutagenicity research). The experiment was performed according to a previously described protocol, which is provided in the Supplementary Materials. Briefly, the TA 100 strain (deprived of the ability to synthesize the histidine) was incubated with each tested compound in an exposure medium containing a limited amount of histidine. The reversion events were counted both manually and by means of a microplate reader. Each fold increase bigger than two times the baseline level (≥2.0-fold) was considered to indicate a mutagen alert. The experiments and data analyses were prepared according to the procedure that was previously described by Flückiger-Isler et al.. The assay was performed in triplicate. The positive control selected for the mutagenicity assays was NQNO, which causes genome point mutations; specifically, it promotes G:C → A:T transitions in the Salmonella Typhimurium TA-100 strain and other bacteria such as Vibrio harveyi and Escherichia coli.
In the next step of the studies, the in vitro safety profiles of the tested selenocompounds were evaluated. All compounds were tested with the 384-well plate microfluctuation Ames test. The mutagenic index (MI) was used as the measure of mutagenicity.
1.5. Safety profile evaluation - Ames microplate mutagenicity assay
Safety profile was evaluated by the means of in vitro microbiological methods – adapted to microplate Ames test, which applies Salmonella enterica serovar Typhimurium bacterial strains (the gold standard in mutagenicity research).
1.5.1. Compounds preparation
To evaluate the impact of tested compounds and of references on Salmonella enterica serovar Typhimurium (onwards Salmonella Typhimurium) TA-100 strain growth by means of the Ames test, the compounds or the reference were dissolved in the pure DMSO, to obtain the corresponding 10 mM stock solutions. Working solutions for tested compounds (25 μM and 250 μM concentrations) were prepared before the assay in DMSO.
1.5.2. Microplate Ames mutagenicity assay protocol
Prior to the experiment, Salmonella Typhimurium was cultured overnight (NB-2 liq-uid medium in the presence of 25 μg/mL ampicillin). At the day of the experiment, fresh dilutions of the tested compounds (25 μM and 250 μM), reference compound (methylse-leninic acid) and standard mutagen (4-nitroquinoline-N-oxide at 2.5 μM and 12.5 μM) in DMSO were prepared. The positive control selected for the mutagenicity assays was NQNO, which causes point mutations at the genome. Specifically, it promotes G:C → A:T transitions in Salmonella Typhimurium TA-100 strain and in the other bacteria such as Vib-rio harveyi and Escherichia coli.
The mutagenic potential of the tested derivatives was evaluated by the incubation of the abovementioned bacteria (deprived of the ability to synthesize the histidine) with spe-cific concentrations of the tested compounds (for 90 min in the exposure medium), con-taining a limited amount of histidine (enough to provide approximately 2-3 cell divisions).
The occurrence of reversion events to histidine prototrophy was observed through the bacterial growth in the indicator medium without histidine after 48 h of incubation in temperature of 37° C [45]. The final compound and the mutagenic agent concentrations in each single well of a 384 well plate were 1 μM and 10 μM for the compounds; and 0.1 μM and 0.5 μM for the mutagen. Lastly, both a manual count and a microplate reader were used to obtain the results. The medium control baseline (MCB) was estimated as the mean number of revertants in the medium control plus one standard deviation. Each fold in-crease bigger than two times the baseline level ≥ 2.0 was considered as a mutagen alert.

[3] = Experimental aqueous solubility (UV spectrophotometry of saturated solutions); assay type: physicochemical; conditions: water (saturated solution), water, thermodynamic from solid
Procedure: Experimental aqueous solubility was determined following a previously described procedure. Briefly, calibration curves were obtained by means of UV spectrometry for each compound, and their respective linear equations were obtained. Afterwards, saturated solutions of each compound were obtained, and they were diluted until the concentration fell within the calibration range, thus enabling the correct concentration interpolation. […] A detailed description of this process can be found in Supplementary Materials.
The aqueous solubility of the tested organic Se compounds was experimentally determined following a previously described procedure. The chosen assay used UV spectrophotometry to estimate the concentration of the saturated solution with known dilutions of the tested compound at room temperature (20° C) after 24 h. The concentrations of the solutions were used to obtain the interpolation of the measured UV absorbance of the saturated solution dilution from the calibration curve drawn using solutions previously prepared in methanol/water mixtures. […]
1.2. Determination of the aqueous solubility
1.2.1. Preparation of the saturated solutions of tested compounds
The saturated solutions (2 mL) of the tested Se-compounds in water were prepared at H2O boiling point in small glass vials. Later, vials were covered to avoid evaporation and all solutions were left 1 day at 20° C, after when every solution was filtered. Finally, the concentration of the Se-compounds was determined through UV spectrophotometric measurements. To estimate correctly the concentration, calibration curves with known concentrations were prepared, and the saturated solutions were diluted till reaching a point within the range of the respective calibration curve.
1.2.2. Preparation of the calibration curve stock solutions for UV spectrometry The stock solutions of 10 selenoesters (EDA-26, EDA-71, EDA-73, EDA-74, EDA-93, […]
were prepared in methanol (99% purity) at a 1 g/L concentration. Additionally, calibration solutions in the range from 0.0005 to 0.02 [g/L] were prepared for each Se-compound and their UV absorbance was determined to draw the corresponding calibration curve.
1.2.3. Sample preparation of saturated filtrates for UV spectrometry
The 100-fold diluted solutions of the saturated filtrates of the Se-compounds were prepared in the anhydrous methanol (99% purity), by addition of 70 μL of the correspond-ing methanol stock solution over anhydrous methanol till filling a 7 mL final volume. Af-terwards, the absorption of abovementioned solutions was determined. Finally, the solu-tions were diluted with 99% methanol from 1 to 160 times, in function of the compound.
The aim of this procedure was to determine the concentration of the Se-compounds […]
through the controlled dilution of the solution with unknown concentration till its UV absorbance fell within the range of the calibration solutions.
1.2.4. Solubility estimation
For each compound, the calibration curve was calculated through the UV absorbance measurements and the linear equation of the linear part of the curve was calculated. The absorbance of the dilution was then interpolated in this range, finding its concentration.
To determine the solubility, this concentration was multiplied by the dilution factor, which was specific for each derivative. This action enabled the estimation of the in vitro solubility of the tested derivatives in saturated solutions. All the solubility values were the average value obtained from the 3 independent measurements.
as §1, §2
1.3.1. Stock solutions and sample preparation for PAMPA test […]

[4] = design: method as in PMID 28245633; conditions: known selenocompounds; cited from earlier work

Row | Structure (SMILES) | Fold Increase over Baseline ([2]; 1 µM) | MI (mutagenic index) ([2]; 1 µM) | B (binomial B value) ([2]; 1 µM) | Fold Increase over Baseline ([2]; 10 µM) | MI (mutagenic index) ([2]; 10 µM) | B (binomial B value) ([2]; 10 µM) | permeability [4] | further results
1 | Cn1c(=O)c2c(ncn2C)n(C)c1=O [Caffeine, caffeine, reference compound] |  |  |  |  |  |  |  | Papp at 5 h, 50 µM [1]: 3.42 ×10⁻⁶ cm/s; % Perm. (percentage that crossed from the donor well to the acceptor well) ([1]; 5 h): 6.05%
2 | COc1cccc2c1C(=O)c1c(O)c3c(c(O)c1C2=O)C[C@@](O)(C(=O)CO)C[C@@H]3O[C@H]1C[C@H](N)[C@H](O)[C@H](C)O1 [DOXO, doxorubicin, reference compound] | 1.31 | 1.64 | 1.00 | 0.77 | 0.95 | 0.46 |  | 
3 | COC(=O)C[Se]C(=O)c1ccccc1Cl [EDA-46, methyl 2-((2-chlorobenzoyl)selanyl)acetate] | 1.65 | 1.56 | 1.00 | 1.00 | 0.94 | 0.88 |  | 
4 | COC(=O)C[Se]C(=O)c1ccccc1 [EDA-53, methyl 2-(benzoylselanyl)acetate] | 1.10 | 1.82 | 1.00 | 1.04 | 1.72 | 0.98 |  | mutagenicity conclusion in Ames test ([2]; TA100, 1 and 10 µM): non-mutagenic
5 | COC(=O)C[Se]C(=O)Cc1ccccc1 [EDA-56, methyl 2-((2-phenylacetyl)selanyl)acetate] | 0.93 | 1.46 | 0.88 | 0.90 | 0.85 | 0.75 |  | 
6 | NC(=O)C[Se]C(=O)c1ccccc1 [EDA-117, Se-carbamoylmethyl benzoselenoate] | 0.49 | 0.66 | 0.36 | 0.42 | 0.57 | 0.18 |  | solubility at 24 h ([3]; 20 °C, logSm calculated based on solubility Sm (mol/L), read-out: Experimental Aqueous Solubility logSm (converted)): 4.27 mM; solubility at 24 h ([3]; room temperature (20° C), after 24 h, average of 3, read-out: Experimental Aqueous Solubility): 1030 µg/mL
7 | N[C@@H](CC[Se]CC[C@H](N)C(=O)O)C(=O)O [L-selenohomolanthionine] |  |  |  |  |  |  | 2.5% | 
8 | C[Se](=O)O [MetSeAc, methylseleninic acid, reference compound] | 0.75 | 0.90 | 0.37 | 0.74 | 0.96 | 0.47 |  | 
9 | CCn1cc(C(=O)O)c(=O)c2cc(F)c(N3CCNCC3)cc21 [Norfloxacin, norfloxacin, reference compound] |  |  |  |  |  |  |  | Papp at 5 h, 50 µM [1]: 0.0949 ×10⁻⁶ cm/s
10 | C[Se]C1O[C@H](CO)[C@H](O)[C@H](O)[C@H]1NC(C)=O (some centres unmarked) [Se-methylseleno-N-acetylgalactosamine] |  |  |  |  |  |  | 2.9% | 
11 | N#C[SeH] [anionic selenocyanate, selenocyanate] |  |  |  |  |  |  | 3.8% | 
12 | C[Se+](C)C [cationic trimethylselenonium, trimethylselenonium] |  |  |  |  |  |  | 3.0% | 
13 | C[Se]C[C@H](N)C(=O)O [methylselenocysteine] |  |  |  |  |  |  | 17.2% | 
14 | O=[Se](O)O [selenite] |  |  |  |  |  |  | 3.4% | 
15 | N[C@@H](C[Se][Se]C[C@H](N)C(=O)O)C(=O)O [selenocystine] |  |  |  |  |  |  | 3.1% | 
16 | C[Se]CC[C@H](N)C(=O)O [selenomethionine] |  |  |  |  |  |  | 12.4% | 
